From US20240124406A1, “INHIBITORS OF TRANSCRIPTIONAL ENHANCED ASSOCIATE DOMAIN (TEAD) AND USES THEREOF” (Dana-Farber Cancer Institute, Inc., priority 2020, published 2024)

tested on: NCI-H226 cells; assay: Antiproliferation assay (2D adherent cell viability, CellTiter-Glo); format: cell-based; conditions: Homo sapiens, 120 h, 5 days treatment, cell viability by CellTiter-Glo
Method: The compounds were evaluated in vitro. In addition, an anti-proliferation assay was performed using NCI-H226 cells (FIG. 2).
The mixture of 2-fluoro-5-nitrobenzonitrile (1 g, 6.0 mmol), cyclohexanamine (0.6For 2D adherent cell viability experiment, the cells were seeded at 384-well plate (Corning, no. 3570) at the density of 200 cells/well. The next day, compounds were added using Janus workstation (PerkinElmer). After 5 days treatment, the cell viability was measured by CellTiter-Glo kit (Promega, no. G7570) as the manufacturer recommended.

SMILES	IC50 [nM]
C=CC(=O)Nc1ccc(Nc2ccc(C(F)(F)F)cc2)c(-c2nccc(OCCO)n2)c1 [Compound A-11, N-(3-(4-(2-hydroxyethoxy)pyrimidin-2-yl)-4-(4-(trifluoromethyl)phenylamino)phenyl)acrylamide]	40
C=CC(=O)Nc1ccc(NC2CCC(F)(F)CC2)c(-c2ncccn2)c1 [Compound A-5, N-(4-(4,4-difluorocyclohexylamino)-3-(pyrimidin-2-yl)phenyl)acrylamide]	8
C=CC(=O)Nc1ccc(Nc2ccc(C(F)(F)F)cc2)c(-c2nccc(N3CCC(O)C3)n2)c1 (stereo not shown) [Compound A-7, N-(3-(4-(3-hydroxypyrrolidin-1-yl)pyrimidin-2-yl)-4-(4-(trifluoromethyl)phenylamino)phenyl)acrylamide]	17
C=CC(=O)Nc1ccc(Nc2ccc(C(F)(F)F)cc2)c(-c2cccnn2)c1 [Compound A-13, N-(3-(pyridazin-3-yl)-4-(4-(trifluoromethyl)phenylamino)phenyl) acrylamide]	31
C=CC(=O)Nc1ccc(Nc2ccc(C(F)(F)F)cc2)c(-c2ncccn2)c1 [Compound A-21, N-(3-(pyrimidin-2-yl)-4-(4-(trifluoromethyl)phenylamino)phenyl) Acrylamide]	4
C=CC(=O)Nc1ccc(Nc2ccc(C(F)(F)F)cc2)c(-c2cc[nH]c(=O)c2)c1 [Compound A-14, N-(3-(2-oxo-1,2-dihydropyridin-4-yl)-4-(4-(trifluoromethyl)phenylamino)phenyl)acrylamide]	1100
C=CC(=O)Nc1cnc(Oc2ccc(C(F)(F)F)cc2)c(-c2ncccn2)c1 [Compound A-12, N-(5-(pyrimidin-2-yl)-6-(4-(trifluoromethyl)phenoxy)pyridin-3-yl)acrylamide]	14
